Experiments:
[1] = test system: epidermis of a Realskin™ reconstructed skin; assay: Intra-tissue glutathione (GSH) level in reconstructed skin, LC/MS of GS-NEM; assay type: cell-based; conditions: lipoic acid 250 μmol·l^−1; 16 h at 37° C.; positive control
Procedure: For this, the GSH level was measured in the epidermis of a Realskin™ reconstructed skin which was: • nontreated (control), • treated with essential oil of Achillea at 0.01% by volume, or • treated with lipoic acid at 250 μmol·l^−1 (positive control).
The reconstructed tissue model kits are conditioned for transport on agar medium. Upon arrival, the tissues were reconditioned in a maintenance medium for a minimum of 16 h at 37° C. in a moisture-saturated atmosphere enriched with 5% CO2. The same medium was used for the incubations in the presence of the substrate.
The various solutions (2 ml) (of essential oil of Achillea at 0.01% by volume and of lipoic acid at […]) were deposited in the wells underneath the skins in order to diffuse through said skins more easily by capillary action. The tissues were then incubated in an incubator at 37° C. for 16 h.
The tissues were ground by means of a Potter grinder in […] of a solution of N-ethylmaleimide (NEM) at 2.5 mmol·l^−1 (excess of NEM). The Potter grinder was then washed with […] of ultrapure water, and 500 μl of 2% formic acid were added. The samples were then centrifuged for 15 minutes at 6000 rpm and at 4° C.
In order to assay the glutathione coupled to the NEM (GS-NEM), […] of the supernatant is diluted in 975 μl of 1% formic acid (1/40) in a 1 ml vial. […]

[2] = test system: primary normal human keratinocytes; assay: Collagen IV production by keratinocytes, in situ immunolabelling and image analysis; assay type: cell-based; conditions: TGF-β tested at 10 ng/ml; 72 hours at 37° C.; positive control
Procedure: The keratinocytes were seeded into and cultured in culture medium for 24 hours.
The culture medium (2.5 ml) was then replaced: • either with test medium containing TGF-β (Transforming Growth Factor β) at 10 ng/ml (positive control), • or with test medium containing the essential oil of Example 1 at 0.003% by volume, • or with the same culture medium (control).
The cells were then incubated for 72 hours at 37° C.
The culture medium was removed and the cells were rinsed, fixed and permeabilized. They were then labelled with an Anti-Collagen IV primary antibody sold by Abcam (reference: Ab6586) directed against the protein of interest (collagen IV). This antibody was visualized with an Alexa Fluor® 488 Goat Anti-Rabbit IgG (H+L) secondary antibody sold by Invitrogen (reference: A11008) coupled to a fluorochrome (GAR-Alexa 488). In parallel, the nuclei of the cells were stained with Hoechst 33258 (bisbenzimide).
The image acquisition was carried out with an INCellAnalyzer™1000 (GE Healthcare) high-resolution imaging system. For each well, 5 digitized images were acquired.
The labellings were quantified by measuring the fluorescence intensity of the proteins relative to the number of nuclei identified by the Hoechst product (integration of the digital data using the Developer Toolbox 1.5 software, GE Healthcare).

## O=C(O)CCCC[C@@H]1CCSS1 (racemic) [lipoic acid]
[1]
  increase in the GSH level relative to the nontreated tissues: 52.0+/−12.7%

## TGF-β
[2]
  collagen IV production by the keratinocytes, relative to the control: 594%
